# Measurements published in US10857128B2, “Methods and compositions for treating inflammatory diseases” (Helmholtz Zentrum München Deutsches Forschungszentrum für …, priority 2017, dated 2020).
# Key:
# gut microbiota = experiment: Gut microbial diversity by 16S rRNA barcoding of caecum samples; format: in vivo, Balb/c mice
# Experimental: Bacterial 16S rRNA gene amplification and diversity analysis. Diversity analysis of 16S rRNA genes was performed by amplicon sequencing. In the first PCR reaction, bacterial genomic DNA was subjected to 16S rRNA gene amplifications using the primer S-D-Bact-0785-a-S-18 [5′-GGMTTAGATACCCBDGTA-3′] (SEQ ID NO: 1) and S-*-Univ-1100-a-A-15 [5′-[…]-3′] (SEQ ID NO: 2) as already mentioned. The reaction mixture of 25 μL in total was composed of 5 ng×μL-1 template DNA, 10 μM of each primer, 10 mM dNTPs (Fermentas, Vilnius, Lithuania), 5% of dimethyl sulfoxide (Sigma-Aldrich, St. Louis, USA), 5 U×μL-1 of FastStart High Fidelity Polymerase (Roche Diagnostics, Mannheim, Germany), 10× FastStart Buffer, and nuclease-free water (Life Technologies, Carlsbad, Calif., USA). The PCR started with an initialization at 95° C. for 5 min, followed by 28 cycles of denaturation at 94° C. for 45 sec, annealing at 44° C. for 45 sec, and elongation at 72° C. for 45 sec. A final elongation step at 72° C. for 5 min completed the PCR reaction. To minimize contamination with primer dimers, generated fragments were cut out of the gel after standard agarose gel electrophoresis and purified with the NucleoSpin Gel and PCR Clean-up Kit (Macherey-Nagel, Düren, Germany).
# During the second PCR, Illumina sequencing adapters as well as dual indices were attached to the purified amplicons using the Nextera XT Index Kit (Illumina, San Diego, Calif., USA). The reaction volume was 50 μL in total and contained 5 μL of genomic DNA, 5 μL of each Nextera XT Index Primer, 25 μl 2× KAPA HiFi HotStart ReadyMix (Kapa Biosystems, Wilmington, Mass., USA), and 10 μL of nuclease-free water (Life Technologies, Carlsbad, Calif., USA). The PCR reaction was performed according to the following thermal profile: 95° C. for 3 min, followed by 8 cycles of 95° C. for 30 sec, 55° C. for 30 sec, 72° C. for 30 sec, and finalized by 72° C. for 5 min. The PCR products were cleaned up with the Agencourt AMPure XP system (Beckman Coulter, Brea, Calif., USA), DNA was quantified and the DNA quality was controlled using the 2100 Bioanalyzer Instrument (Agilent Technologies, Santa Clara, Calif., USA), and sequenced with the MiSeq instrument (Illumina, San Diego, Calif., USA).
# For testing prevention of AAI, mice received 50 mM D-tryptophan starting at least three days before the first sensitization until sacrificing on day 25. For microbiome analyses, the caecum was cut off and immediately stored at −80° C. until further processing.
# Microbial Diversity. Bacterial diversity was assessed by molecular barcoding of 16S rRNA genes in caecum samples of six animals per group. To this end, DNA was directly extracted from the caecum using a kit based protocol (PowerSoil DNA Isolation Kit, MO BIO Laboratories, Carlsbad, Calif., USA). 315 bp fragments were amplified within the variable region V5 and V6 of the 16S rRNA gene using S-D-Bact-0785-a-S-18[5′-GGMTTAGATACCCBDGTA-3′] (SEQ ID NO: 1) and S-*-Univ-1100-a-A-15 [5′-[…]-3′] (SEQ ID NO: 2) as primers (Klindworth et al., Nucleic Acids Res. 2013 Jan. 7; 41(1):el). Sequencing of amplicons was performed on the Illumina MiSeq platform (Illumina, San Diego, Calif., USA) using paired end technology (see section “Bacterial 16S rRNA gene amplification and diversity analysis” herein). Sequences are deposited in NCBI accession number PRJNA304109.
# Reads were analyzed with the software package QIIME. Operational taxonomic units (OTUs) were picked within the 13_8 version of the Greengenes reference database (McDonald et al., ISME J. 2012 March; 6(3):610-8) at a similarity level of 95% sequence identity. Sequences were subsampled to 15000 reads per sample, which reflects the number of reads obtained in the sample with the lowest number of reads after quality control. This number was still sufficient to reach a plateau when collectors' curves were calculated on the basis of OTU95. […]
# [1] = system: murine naïve CD4+ T cells; experiment: In vitro differentiation of murine primary T cells (Th1, Th2, Treg); format: cell-based, Balb/c mice; conditions: 10 or 50 μM D-Trp
# Source text: Differentiation of murine primary T cells. Murine spleens from female Balb/c mice were filtered through a 40 μm filter to generate single cell suspensions. These were then subjected to red blood cell lysis by using RBC lysis buffer (Biolegend, San Diego, USA) according to the manufacturer's recommendations. Afterwards, naïve CD4^+ T cells were isolated via magnetic-activated cell sorting (MACS) using the naïve CD4^+ T cell isolation kit (Miltenyi Biotec, Bergisch-Gladbach, Germany). The resulting naïve CD4^+ T cells were cultured in 96 wells plates (1×10^6 cells/ml Medium) in TexMACS medium supplemented with 10% FCS, 0.01 mM 2-Mercaptoethanol, rIL-2 (10 ng/ml) as well as MACSiBead particles with anti-CD3 and anti-CD28 (1×10^6 beads per 1×10^6 cells) (all Miltenyi Biotec). Cells were differentiated over a period of 6 days towards Th1 (10 ng/ml IL12 and 10 μg/ml anti-IL4, derived from Cytobox Th1), Th2 (10 ng/ml II4 and 10 μg/ml anti-Ifnγ, derived from Cytobox Th2) and Treg (5 ng/ml) (all Miltenyi Biotec). Differentiation of cells was assessed by flow cytometry (see FIG. 15 for gating strategy), enhanced cytometric bead array (CBA) from cell culture supernatants and qRT-PCR. Prior to CBA and flow cytometry, cells were stimulated with monensin (0.7 μL/mL, BD Golgi Stop, BD Bioscience, Heidelberg, Germany) for 4 h at 37° C. in the prescence of lonomycin (500 ng/ml, Sigma Aldrich, Missouri, USA) and PMA (5 ng/ml, Sigma Aldrich, Missouri, USA).
# Assessment of cytokines by cytometric bead array. Levels of II4, II5 and II13 were analysed in BALF and cell culture supernatants using an enhanced cytometric bead array (eCBA, Fex Set Kits, BD Biosciences, Franklin Lakes, N.J., USA) according to the manufacturer's guidelines.
# Gene expression analysis. Total RNA was isolated from homogenized lung tissue or cell culture using the miRNeasy Micro Kit according to manufacturer's instructions (Qiagen, Venlo, Netherlands). Concentrations were determined using a NanoDrop® ND-1000 (NanoDrop Technologies, Erlangen, Germany) spectrophotometer. mRNA was transcribed to cDNA with the QuantiTect Rev. Transcription kit (Qiagen, Venlo, Netherlands) and PCR for specific genes was performed on a LightCycler 480 platform with Light Cycler 480 SYBR Green I Mastermix (Roche, Mannheim, Germany).
structure (smiles),measurement,setting,value
N[C@H](Cc1c[nH]c2ccccc12)C(=O)O [D-tryptophan],impact on microbial community composition,gut microbiota; AAI mice,significant
same,abundance of Ruminococcaceae,gut microbiota; AAI mice with D-Trp,8.9%
same,bacterial diversity (alpha-diversity) of AAI mice,"gut microbiota; AAI mice, 50 mM in drinking water",increased
same,abundance of Rikenellaceae,gut microbiota; D-Trp groups,1.1-2.0%
same,abundance of Lachnospiraceae,gut microbiota; D-tryptophan treated AAI mice,20.6%
same,abundance of Lachnospiraceae,gut microbiota; D-tryptophan treated mice without AAI,27.5%
same,relative abundance of Odoribacteraceae,gut microbiota; both groups of supplemented animals,3.9%
same,members of the S24-7 family,"gut microbiota; mouse, in vivo",neither affected
same,Th1 differentiation,[1]; 6 days,remained unaffected
same,Th2 cell differentiation,[1]; 6 days,reduced
same,lfng expression,[1]; Th1 conditions,remained unaffected
same,"II-4, Gata3 expression and II-13 secretion",[1]; Th2 conditions,reduced
same,Foxp3 expression of Treg cells on mRNA and protein level,[1]; Treg conditions,increased
